Experimental data: US5849736A, “Isoxazoline and isoxazole fibrinogen receptor antagonists” (The DuPont Merck Pharmaceutical Company, priority 1995, dated 1998)

Test system: platelet aggregation in human platelet rich plasma (PRP)
Assay: Platelet Aggregation Assay (platelet rich plasma, with or without esterase pretreatment)
Format: cell-based
Conditions: Platelet, preincubated with 100 IU/mL porcine liver esterase 2 hours at 37° C., 100 μM ADP, read-out: Platelet Aggregation Assay IC50 (with esterase)
Outline: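 Human citrated PRP from drug-free donors, PPP as 100% transmittance blank; compounds added at various concentrations before agonist (ADP, collagen, arachidonate, epinephrine or thrombin), aggregation followed by light transmittance. Ester prodrugs pretreated (10^-3 M F.C.) with 100 IU/mL porcine liver esterase, 2 h 37 °C; 8 min 37 °C preincubation, then 100 μM ADP, 5 min; % inhibition vs control, IC50.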

Row | Compound | IC50
1 | CCNC(=N)c1ccc(C2=NOC(CC(=O)NCC(NS(=O)(=O)c3ccccc3C)C(=O)O)C2)cc1 (stereo not shown) [Example 2116] | < 10 µM
2 | COC(=O)C(CNC(=O)CC1CC(c2ccc(C(=N)N)cc2)=NO1)NS(=O)(=O)c1ccc(S(=O)(=O)c2ccccc2)s1 (stereo not shown) [Example 2118] | < 10 µM
3 | N=C(N)c1ccc(C2=NOC(CC(=O)NCC(NS(=O)(=O)c3ccc(S(=O)(=O)c4ccccc4)s3)C(=O)O)C2)cc1 (stereo not shown) [Example 2119] | < 10 µM
4 | CC(C)(C)OC(=O)NC(=N)c1ccc(C2=NOC(CC(=O)NCC(NS(=O)(=O)c3ccc(S(=O)(=O)c4ccccc4)s3)C(=O)O)C2)cc1 (stereo not shown) [Example 2120] | < 10 µM
5 | N=C(N)NCCC1CC(CCC(=O)NCC(NC(=O)OCc2ccccc2)C(=O)O)=NO1 (stereo not shown) [Example 2280] | < 10 µM
6 | N=C(N)NCC1CC(CCC(=O)NCC(NC(=O)OCc2ccccc2)C(=O)O)=NO1 (stereo not shown) [Example 2281] | < 10 µM
7 | N=C(N)NCCC1=NOC(CCC(=O)NCC(NC(=O)OCc2ccccc2)C(=O)O)C1 (stereo not shown) [Example 2400] | < 10 µM
8 | N=C(N)NCCCC1=NOC(C(=O)NCC(NC(=O)OCc2ccccc2)C(=O)O)C1 (stereo not shown) [Example 2401] | < 10 µM
9 | N=C(N)NCCCCCC1=NOC(C(=O)NCC(NC(=O)OCc2ccccc2)C(=O)O)C1 (stereo not shown) [Example 2402] | < 10 µM
10 | N=C(N)NCCCC1=NOC(CCC(=O)NCC(NC(=O)OCc2ccccc2)C(=O)O)C1 (stereo not shown) [Example 2403] | < 10 µM
11 | N=C(N)NCCCCC1=NOC(CCC(=O)NCC(NC(=O)OCc2ccccc2)C(=O)O)C1 (stereo not shown) [Example 2404] | < 10 µM
12 | N=C(N)NCCC1=NOC(C(=O)NCC(NC(=O)OCc2ccccc2)C(=O)O)C1 (stereo not shown) [Example 2405] | < 10 µM
13 | N=C(N)NCCCCC1=NOC(C(=O)NCC(NC(=O)OCc2ccccc2)C(=O)O)C1 (stereo not shown) [Example 2406] | < 10 µM
